Test results reported in patent US20240174636A1, “NOVEL INDOLEAMINE 2,3-DIOXYGENASE INHIBITORS, PROCESSES FOR THE PREPARATION THEREOF AND PHARMACEUTICAL COMPOSITIONS COMPRISING THE SAME” (YUHAN CORPORATION, priority 2021, published 2024).

What follows are compounds tested against IDO1 (Homo sapiens, UniProt P14902) (assay: IDO1 cellular activity using HEK293 cells transfected with IDO1 expression vector). Conditions: 24 h compound incubation, read-out: Inhibitory Activity (IC50).
Assay type: cell-based
Set-up: host or cells: HEK293 cells, transient transfection with Lipofectamine 2000
Method: HEK293 cells were seeded at a density of 30000 cells/well in 100 μl of a culture medium (DMEM supplemented with 10% FBS, penicillin 100 U/ml, and streptomycin 100 μg/ml) in a tissue culture-treated 96 well plate. The cells were cultured in a 5% carbon dioxide incubator for 24 hours, transfected with the IDO1 expression vector (component A in IDO1 cell-based assay kit, catalog #72031, BPS Bioscience) using Lipofectamine 2000 (Life Technologies, #11668027), and then cultured for 24 hours in a 5% carbon dioxide incubator to express the IDO protein.
The activities were measured using a IDO1 cell-based assay kit (catalog #72031, BPS Bioscience). Specifically, an assay medium was prepared by diluting IDO1 assay medium substrate 1 and IDO1 assay medium supplement 2 in a culture medium at a ratio of 1:100, respectively. The test compounds were diluted to the predetermined concentrations in the fresh assay medium. After removing the culture medium using a multi-pipet, 200 μl of each assay medium containing the test material was added into respective well, followed by incubating in a 5% carbon dioxide incubator for 24 hours. The next day, 140 μl of culture medium from each well was transferred to a new 96-well plate. 10 μl of 6.1N trichloroacetic acid was added into each well, which was then cultured in a 50° C. incubator for 30 minutes. The plate was centrifuged at 2500 rpm for 10 minutes to settle any sediment. A detection reagent solution was prepared by diluting the detection reagent (component D in IDO1 cell-based assay kit, catalog #72031 BPS Bioscience) 50-fold in acetic acid. 100 μl of the supernatant taken from the centrifuged plate was transferred to a new transparent 96-well plate and then 100 μl of the detection reagent solution was added thereto. After reacting at room temperature for 10 minutes, absorbance was measured at 480 nm wavelength. For analysis of the results, the absorbance (At) of the well containing HEK293 cells in which IDO protein was expressed without treatment of an inhibitor was 100%; and the absorbance (Ab) of the well containing HEK293 cells in which IDO protein was not expressed was 0. The % absorbance was calculated according to the following equation: % Absorbance=(A−Ab)/(At−Ab), A=absorbance of the well treated with the test compound.

Chain of IDO1 (P14902 whole entry): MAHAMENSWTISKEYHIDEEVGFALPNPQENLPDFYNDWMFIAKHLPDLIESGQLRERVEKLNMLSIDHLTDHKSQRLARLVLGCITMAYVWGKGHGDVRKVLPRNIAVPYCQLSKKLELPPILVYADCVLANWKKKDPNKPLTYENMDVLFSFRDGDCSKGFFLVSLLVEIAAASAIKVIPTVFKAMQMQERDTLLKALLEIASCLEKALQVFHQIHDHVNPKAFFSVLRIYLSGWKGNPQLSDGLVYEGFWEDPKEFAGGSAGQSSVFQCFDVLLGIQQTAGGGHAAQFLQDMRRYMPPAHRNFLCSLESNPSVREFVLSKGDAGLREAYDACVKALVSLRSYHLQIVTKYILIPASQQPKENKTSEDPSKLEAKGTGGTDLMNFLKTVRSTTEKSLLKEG

| SMILES | IC50 |
| --- | --- |
| C[C@H](C[C@H]1CC[C@@H](c2ccnc3ccc(F)cc32)CC1)Nc1nc2ccc(F)c(F)c2o1 [Example 47, 6,7-difluoro-N-((R)-1-((cis)-4-(6-fluoroquinolin-4-yl)cyclohexyl)propan-2-yl)benzo[d]oxazol-2-amine] | 5.5 nM |
| COc1ccc2nc(N[C@H](C)C[C@H]3CC[C@@H](c4ccnc5ccc(F)cc54)CC3)oc2c1F [Example 42, 7-fluoro-N-((R)-1-((cis)-4-(6-fluoroquinolin-4-yl)cyclohexyl)propan-2-yl)-6-methoxybenzo[d]oxazol-2-amine] | 6.6 nM |
| C[C@H](C[C@H]1CC[C@@H](c2ccnc3ccc(F)cc32)CC1)Nc1nc(Cl)nc2cc(Cl)ccc12 [Example 40, 2,7-dichloro-N-((R)-1-((cis)-4-(6-fluoroquinolin-4-yl)cyclohexyl)propan-2-yl)quinazolin-4-amine] | 21.9 nM |
| C[C@H](C[C@H]1CC[C@@H](c2ccnc3ccc(F)cc32)CC1)Nc1nc2ccc(Cl)c(Cl)c2o1 [Example 46, 6,7-dichloro-N-((R)-1-((cis)-4-(6-fluoroquinolin-4-yl)cyclohexyl)propan-2-yl)benzo[d]oxazol-2-amine] | 17.2 nM |
| C[C@H](C[C@H]1CC[C@@H](c2ccnc3ccc(F)cc32)CC1)Nc1nc2cc(F)c(Cl)cc2o1 [Example 43, 6-chloro-5-fluoro-N-((R)-1-((cis)-4-(6-fluoroquinolin-4-yl)cyclohexyl)propan-2-yl)benzo[d]oxazol-2-amine] | 6.3 nM |

Now from value to compound:

| IC50 | SMILES |
| --- | --- |
| 25.2 nM | Cc1ccc2c(N[C@H](C)C[C@H]3CC[C@H](c4ccnc5ccc(F)cc54)CC3)nc(Cl)nc2c1 [Example 57, 2-chloro-N-((R)-1-((trans)-4-(6-fluoroquinolin-4-yl)cyclohexyl)propan-2-yl)-7-methylquinazolin-4-amine] |
| 50.5 nM | C[C@H](C[C@H]1CC[C@@H](c2ccnc3ccc(F)cc32)CC1)Nc1nc(Cl)nc2c(Cl)cccc12 [Example 68, 2,8-dichloro-N-((R)-1-((cis)-4-(6-fluoroquinolin-4-yl)cyclohexyl)propan-2-yl)quinazolin-4-amine] |
| 72 nM | C[C@H](C[C@H]1CC[C@H](c2ccnc3ccc(F)cc32)CC1)Nc1nc(Cl)nc2ccc(Cl)cc12 [Example 49, 2,6-dichloro-N-((R)-1-((trans)-4-(6-fluoroquinolin-4-yl)cyclohexyl)propan-2-yl)quinazolin-4-amine] |
| 56.6 nM | C[C@H](C[C@H]1CC[C@@H](c2ccnc3ccc(F)cc32)CC1)Nc1nc(Cl)nc2cc(F)ccc12 [Example 62, 2-chloro-7-fluoro-N-((R)-1-((cis)-4-(6-fluoroquinolin-4-yl)cyclohexyl)propan-2-yl)quinazolin-4-amine] |
| 16.8 nM | C[C@H](C[C@H]1CC[C@H](c2ccnc3ccc(F)cc32)CC1)Nc1nc(Cl)nc2cc(C(F)(F)F)ccc12 [Example 58, 2-chloro-N-((R)-1-((trans)-4-(6-fluoroquinolin-4-yl)cyclohexyl)propan-2-yl)-7-(trifluoromethyl)quinazolin-4-amine] |
